# Results taken from patent US20110014164A1, “EFFICIENT INDUCTION OF PLURIPOTENT STEM CELLS USING SMALL MOLECULE COMPOUNDS” (PRESIDENT AND FELLOWS OF HARVARD COLLEGE, priority 2008, published 2011).
# Legend:
# [1] = tested on: MEFs infected with Oct4, Sox2, Klf4 (but no c-Myc); experiment: Reprogramming efficiency of 3-factor infected Oct4-GFP MEFs, FACS analysis; format: cell-based, mouse; details: 2 mM for a week; FACS 10 days post-infection; 3-factor infected MEFs
# Protocol: FIG. 2(a) MEFs infected with Oct4, Sox2, Klf4 (but no c-Myc) were treated with 5′-azaC (2 μM) or VPA (2 mM) for a week, the percentage of Oct4-GFP positive cells induced was measured through FACS analysis at 10 days post-infection, and compared to infected MEFs without treatment. n=4 for each condition.
# Retroviral introduction of c-Myc could cause tumorigenecity in cells derived from the iPS cells thus generated^2. […] Similar low efficiency was also reported for induction of iPS cells from mouse fibroblasts without c-Myc^24. We tested whether treating the cells with 5′-azaC or VPA improves the efficiency of iPS colony formation without the need for c-Myc. MEFs were first infected with Oct4, Sox2 and Klf4, then treated with 5′-azaC or VPA for a week starting 1 day post-infection. […] Consistent with the FACS data, a 30-40 fold increase of GFP positive colonies was observed compared to control MEFs without treatment (FIG. 2c). This allowed for picking of iPS colonies within two weeks post-infection, sooner than the typical ˜30 days post-infection or later without chemical treatment^13, 24.
# Moloney-based retroviral vector (pMXs) containing the murine complementary DNAs of Oct4, Sox2, c-Myc, and Klf4 were obtained from Addgene^1. […]
# [2] = tested on: human BJ and NHDF cells infected by Oct4 and Sox2; experiment: iPS induction in 2-factor (Oct4, Sox2) infected human fibroblasts; format: cell-based; details: both with VPA treatment
# Description: b. In the published reprogramming protocol, infected human fibroblasts are typically cultured in fibroblast media first, then reseeded on feeders and switched to hES cell media about a week post-infection. In the modified protocol, human fibroblasts were replated immediately after infection, treated with VPA in hES media, and subsequently cultured in hES media.
# c. The efficiency of iPS colony induction by 3 factors (Oct4, Sox2 and Klf4) and 2 factors (Oct4 and Sox2) with VPA treatment are plotted. Each dot represents one experiment; each bar represents the average for each condition.
# Encouraged by the more efficient 3-factor reprogramming with VPA treatment, we explored the possibility of eliminating some of the transcription factors. The modified induction method with VPA treatment (FIG. 9b) was applied to human BJ and NHDF cells infected by different 2-factor combinations, and AP^+ iPS colonies were identified about 1 month post-infection in fibroblasts infected by Oct4 and Sox2. Karyotypically normal iPS cell lines (Table 2) were established from 2-factor infected human fibroblasts. On average, between 1 and 5 iPS lines were successfully established out of every 100,000 BJ or NHDF cells infected by Oct4 and Sox2 (FIG. 9c). […] The efficiency of reprogramming by 2 factors, however, was ˜100 fold lower than that by 3 factors both with VPA treatment. […]
# [3] = Effect of VPA treatment on cell cycles; format: cell-based
# Description: Therefore, VPA partially reprograms MEFs towards more ES cell-like.
# [4] = tested on: primary human fibroblasts, BJ and NHDF, infected by Oct4, Sox2 and Klf4; experiment: iPS colony induction in 3-factor (Oct4, Sox2, Klf4) infected human fibroblasts; format: cell-based
# Description: AP^+ colonies were compared for 3-factor (Oct4, Sox2 and Klf4) infected BJ fibroblasts with or without VPA treatment at 25 days post-infection.
# Human fibroblasts were first infected by Moloney murine leukemia retroviruses expressing the Oct4, Sox2 and Klf4 genes, and treated with VPA for 1 to 2 weeks.
# Human fibroblasts were infected by different transcription factor combinations, and replated in fibroblast medium typically at 2×10^5 cells per well in gelatin-coated 6-well plates at 0 day post-infection. Cells were cultured in hES cell media starting from 1 day post-infection.
compound,measurement,setting,value
"CCCC(CCC)C(=O)O [VPA, valproic acid]",improvement of reprogramming efficiency,[1],50 fold
same,efficiency of reprogramming by 2 factors lower than by 3 factors,[2],~100 fold
same,effect on cell cycles,[3],does not accelerate cell cycles
same,promotion of the efficiency of iPS colony formation,[4]; human skin cells infected with the three factors,~30 fold
same,improvement over the first report on reprogramming by the same 3-factor combination (<0.001%),[4]; optimized induction protocol together with VPA treatment,1000 fold
